Here are results for six molecules from patent US20240158390A1, “OTHER HETEROAROMATIC COMPOUNDS HAVING ACTIVITY AGAINST RSV” (Janssen Sciences Ireland Unlimited Company, priority 2019, published 2024).

A short description of one series: in vitro. The class given is cell-based. The conditions noted are these: human. The procedure: (§1) Black 384-well clear-bottom microtiter plates (Corning, Amsterdam, The Netherlands) were filled via acoustic drop ejection using the echo liquid handler (Labcyte, Sunnyvale, California). 200 nL of compound stock solutions (100% DMSO) were transferred to the assay plates. 9 serial 4-fold dilutions of compound were made, creating per quadrant the same compound concentration. The assay was initiated by adding 10 μL of culture medium to each well (RPMI medium without phenol red, 10% FBS-heat inactivated, 0.04% gentamycin (50 mg/mL). All addition steps are done by using a multidrop dispenser (Thermo Scientific, Erembodegem, Belgium). Next, rgRSV224 virus (MOI=1) diluted in culture medium was added to the plates. rgRSV224 virus is an engineered virus that includes an additional GFP gene (Hallak LK, Spillmann D, Collins PL, Peeples ME. Glycosaminoglycan sulfation requirements for respiratory syncytial virus infection; Journal of virology (2000), 74(22), 10508-13) and was in-licensed from the NIH (Bethesda, MD, USA). Finally, 20 μL of a HeLa cell suspension (3,000 cells/well) were plated. Medium, virus- and mock-infected controls were included in each test. The wells contain 0.05% DMSO per volume. Cells were incubated at 37° C. in a 5% CO2 atmosphere. Three days post-virus exposure, viral replication was quantified by measuring GFP expression in the cells by an in house developed MSM laser microscope (Tibotec, Beerse, Belgium). The EC50 was defined as the 50% inhibitory concentration for GFP expression. In parallel, compounds were incubated for three days in a set of white 384-well microtiter plates (Corning) and the cytotoxicity of compounds in HeLa cells was determined by measuring the ATP content of the cells using the ATPlite kit (Perkin Elmer, Zaventem, Belgium) according to the manufacturer's instructions. The CC50 was defined as the 50% concentration for cytotoxicity.

Another series relates to rgRSV224 virus. Description: Antiviral activity: rgRSV224 (GFP) replication in HeLa cells. In kind it is cell-based. As to conditions: human respiratory syncytial virus, 72 h, read-out: RSV HELA EC50 (μM). As to the method:
as §1

In the series “in vitro”, `C[C@@H]1c2ccccc2CCN1C(=O)c1cc(C2CC2)c2nn(-c3ccc(NC(=O)N4CC[C@H](O)C4)cc3F)cc2c1` [Compound 20, (3S)-N-(4-{7-Cyclopropyl-5-[(1R)-1-methyl-1,2,3,4-tetrahydroisoquinoline-2-carbonyl]-2H-indazol-2-yl}-3-fluorophenyl)-3-hydroxypyrrolidine-1-carboxamide] came in with a half-maximal cytotoxic concentration (CC50) at 3 days of 54.4 µM. Also, the EC50 in the series with rgRSV224 virus was found to be 0.06 µM.
For `C[C@@H]1c2ccccc2CCN1C(=O)c1cc(C2CC2)c2nc(-c3ccc(N4CC[C@H](C(=O)O)C4)cc3F)oc2c1` [Compound 21, (3S)-1-(4-{4-Cyclopropyl-6-[(1R)-1-methyl-1,2,3,4-tetrahydroisoquinoline-2-carbonyl]-1,3-benzoxazol-2-yl}-3-fluorophenyl)pyrrolidine-3-carboxylic acid] the same measures were 51.5 µM and 0.01 µM.
In the series “in vitro”, `C[C@@H]1c2ccccc2CCN1C(=O)c1cc(C2CC2)c2nc(-c3ccc(N4CC[C@H](C(N)=O)C4)cc3F)oc2c1` [Compound 22, (3S)-1-(4-{4-Cyclopropyl-6-[(1R)-1-methyl-1,2,3,4-tetrahydroisoquinoline-2-carbonyl]-1,3-benzoxazol-2-yl}-3-fluorophenyl)pyrrolidine-3-carboxamide] yielded a half-maximal cytotoxic concentration (CC50) at 3 days of 54.8 µM. The 50% effective concentration (EC50) in the series with rgRSV224 virus was found to be 0.01 µM.
Consider `C[C@@H]1c2ccccc2CCN1C(=O)c1cc(C2CC2)c2nc(-c3ccc(NC(=O)N4CC[C@@H](O)C4)cc3F)oc2c1` [Compound 23, (R)-N-(4-(4-cyclopropyl-6-((R)-1-methyl-1,2,3,4-tetrahydroisoquinoline-2-carbonyl)benzo[d]oxazol-2-yl)-3-fluorophenyl)-3-hydroxypyrrolidine-1-carboxamide], for which, in the series “in vitro”, the CC50 at 3 days came out at 47.8 µM. Besides, the concentration for a half-maximal effect (EC50) in the series with rgRSV224 virus turned out to be 0.05 µM.
For `C[C@@H]1c2ccccc2CCN1C(=O)c1cc(C2CC2)c2nc(-c3ccc(NC(=O)N4CC[C@@H](O)C4)cc3F)sc2c1` [Compound 24, (R)-N-(4-(4-cyclopropyl-6-((R)-1-methyl-1,2,3,4-tetrahydroisoquinoline-2-carbonyl)benzo[d]thiazol-2-yl)-3-fluorophenyl)-3-hydroxypyrrolidine-1-carboxamide] the same measures were 54 µM and 0.17 µM.
In turn, `C[C@@H]1c2ccccc2CCN1C(=O)c1cc(-c2ccccc2)c2cn(-c3ccc(N4C[C@H](O)[C@@H](O)C4)cc3F)nc2c1` [Compound 25, (2-(4-((3S,4S)-3,4-dihydroxypyrrolidin-1-yl)-2-fluorophenyl)-4-phenyl-2H-indazol-6-yl)((R)-1-methyl-3,4-dihydroisoquinolin-2 (1H)-yl)methanone] came in with a CC50 at 3 days in “in vitro” of 19.4 µM. Besides, the EC50 with rgRSV224 virus was 0.47 µM.
